What was measured:
AurA kinase = molecular target: T1, AurA kinase (Homo sapiens, UniProt O14965); assay: Kinase activity, mobility shift assay (MSA), AurA; type: biochemical; settings: read-out: inhibitory activity against AurA kinase
T1 construct: purchased Carna Biosciences Inc. (Kobe) 05-101
T1 sequence (O14965 1-403): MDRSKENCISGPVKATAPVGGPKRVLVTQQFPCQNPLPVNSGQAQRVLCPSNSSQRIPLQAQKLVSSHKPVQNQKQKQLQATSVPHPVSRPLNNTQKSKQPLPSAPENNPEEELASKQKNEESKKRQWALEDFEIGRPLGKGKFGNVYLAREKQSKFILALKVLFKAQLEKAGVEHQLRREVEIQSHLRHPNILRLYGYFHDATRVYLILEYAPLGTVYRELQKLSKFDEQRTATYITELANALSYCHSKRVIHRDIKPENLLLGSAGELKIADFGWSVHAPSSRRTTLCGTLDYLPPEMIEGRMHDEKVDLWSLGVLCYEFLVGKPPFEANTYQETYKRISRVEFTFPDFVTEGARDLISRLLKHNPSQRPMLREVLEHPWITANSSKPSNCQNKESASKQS
Method: (§1) A test compound was dissolved in DMSO to obtain a 10 mM test compound solution, which was stored in a dark place at −20° C. until measurement. When bioactivity (kinase activity) is measured, a test compound solution is diluted with DMSO so that the concentration becomes 100 times higher than […], and then diluted 25 times (DMSO concentration is 4%) with an assay buffer described hereinafter.
(§2) Products manufactured by Carna Biosciences Inc. (Kobe) used as protein kinases (recombinant human kinases) in the test are as follows: […]
(§3) Kinase activity was measured by a mobility shift assay (MSA) method using QuickScout Screening Assist™ MSA (commercially available kit, manufactured by Carna Biosciences Inc.)
(§4) 5 μl of a test compound solution (the concentration is 4 times of the final concentration) dissolved or suspended in an assay buffer [20 mM HEPES, 0.01% Triton™ X-100, 1 mM dithiothreitol, pH 7.5] or 5 μl of a solvent (4% DMSO-assay buffer) was charged in a 384 well plate made of polypropylene (product number 781280, manufactured by Greiner Bio-One Co., Ltd.). […] Inhibition (%) of the test compound was calculated in accordance with the following equation: […]

JAK3 = molecular target: T2, JAK3 (Homo sapiens, UniProt P52333); assay: Kinase activity, mobility shift assay (MSA), JAK3; type: biochemical; settings: read-out: inhibitory activity against JAK3 kinase
T2 construct: purchased Carna Biosciences Inc. (Kobe) 08-046
T2 sequence (P52333 1-1124): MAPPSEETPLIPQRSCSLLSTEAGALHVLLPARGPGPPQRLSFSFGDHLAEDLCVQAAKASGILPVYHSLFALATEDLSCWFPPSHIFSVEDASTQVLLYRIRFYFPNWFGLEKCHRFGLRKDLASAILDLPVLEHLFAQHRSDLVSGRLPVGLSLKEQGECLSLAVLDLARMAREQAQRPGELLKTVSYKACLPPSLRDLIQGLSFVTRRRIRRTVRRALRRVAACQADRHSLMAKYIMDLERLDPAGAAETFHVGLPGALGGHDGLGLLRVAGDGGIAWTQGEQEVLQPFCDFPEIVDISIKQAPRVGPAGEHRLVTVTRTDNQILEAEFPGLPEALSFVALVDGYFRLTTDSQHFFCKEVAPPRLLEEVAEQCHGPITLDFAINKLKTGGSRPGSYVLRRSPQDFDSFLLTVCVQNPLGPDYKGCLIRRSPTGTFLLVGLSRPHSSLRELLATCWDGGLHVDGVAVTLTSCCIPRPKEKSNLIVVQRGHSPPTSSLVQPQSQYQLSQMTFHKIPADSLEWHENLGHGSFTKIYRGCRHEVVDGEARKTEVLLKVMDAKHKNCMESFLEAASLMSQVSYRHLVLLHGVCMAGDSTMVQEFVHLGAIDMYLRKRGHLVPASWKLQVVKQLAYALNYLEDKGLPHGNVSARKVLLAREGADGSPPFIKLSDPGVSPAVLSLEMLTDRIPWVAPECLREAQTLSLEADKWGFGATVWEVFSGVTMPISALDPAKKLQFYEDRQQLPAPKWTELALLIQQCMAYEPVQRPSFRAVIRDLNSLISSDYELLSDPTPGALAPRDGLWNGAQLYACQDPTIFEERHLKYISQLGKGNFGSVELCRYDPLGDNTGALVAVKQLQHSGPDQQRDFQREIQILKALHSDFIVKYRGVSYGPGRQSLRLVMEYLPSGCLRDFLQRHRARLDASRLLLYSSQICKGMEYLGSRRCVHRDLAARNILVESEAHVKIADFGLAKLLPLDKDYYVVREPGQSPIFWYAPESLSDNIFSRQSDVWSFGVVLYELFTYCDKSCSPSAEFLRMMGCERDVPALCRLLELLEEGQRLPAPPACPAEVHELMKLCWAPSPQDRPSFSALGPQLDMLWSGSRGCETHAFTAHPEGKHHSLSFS
Method: as §1, §2, §3, §4

JAK2 = JAK2 (Homo sapiens, UniProt O60674); assay: Kinase activity, mobility shift assay (MSA), JAK2; type: biochemical; settings: read-out: inhibitory activity against JAK2 kinase
Sequence of JAK2 (O60674 whole entry): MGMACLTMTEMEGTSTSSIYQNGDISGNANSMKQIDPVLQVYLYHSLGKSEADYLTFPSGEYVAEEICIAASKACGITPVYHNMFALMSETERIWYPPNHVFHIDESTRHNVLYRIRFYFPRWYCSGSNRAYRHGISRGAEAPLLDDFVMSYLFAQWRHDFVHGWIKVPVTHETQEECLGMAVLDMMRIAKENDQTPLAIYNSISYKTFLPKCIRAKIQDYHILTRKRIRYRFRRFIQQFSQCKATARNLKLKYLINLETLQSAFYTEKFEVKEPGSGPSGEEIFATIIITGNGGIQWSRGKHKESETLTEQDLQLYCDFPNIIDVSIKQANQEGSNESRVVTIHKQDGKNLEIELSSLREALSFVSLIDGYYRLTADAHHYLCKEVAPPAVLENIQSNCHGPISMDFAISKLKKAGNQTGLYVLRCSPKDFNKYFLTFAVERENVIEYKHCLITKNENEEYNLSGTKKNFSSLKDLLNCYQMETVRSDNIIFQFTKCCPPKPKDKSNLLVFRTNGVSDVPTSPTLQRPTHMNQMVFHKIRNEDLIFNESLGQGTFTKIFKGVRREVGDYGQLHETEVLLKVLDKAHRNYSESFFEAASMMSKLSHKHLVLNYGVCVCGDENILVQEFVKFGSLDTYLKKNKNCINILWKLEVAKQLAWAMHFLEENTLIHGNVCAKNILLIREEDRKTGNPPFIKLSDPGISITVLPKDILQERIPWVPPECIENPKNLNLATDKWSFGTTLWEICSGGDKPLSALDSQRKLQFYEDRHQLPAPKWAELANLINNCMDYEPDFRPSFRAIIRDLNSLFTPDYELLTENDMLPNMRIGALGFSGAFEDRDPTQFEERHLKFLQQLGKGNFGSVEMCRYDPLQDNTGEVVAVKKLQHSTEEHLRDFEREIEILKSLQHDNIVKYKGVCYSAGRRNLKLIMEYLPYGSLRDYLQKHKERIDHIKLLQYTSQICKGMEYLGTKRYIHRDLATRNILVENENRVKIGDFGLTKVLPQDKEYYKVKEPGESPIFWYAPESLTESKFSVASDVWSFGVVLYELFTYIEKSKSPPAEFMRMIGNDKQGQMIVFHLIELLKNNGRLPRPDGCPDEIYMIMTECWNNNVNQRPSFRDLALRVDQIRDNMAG

[1] = system: Rat basophilic cells RBL-2H3; assay: Action against IgE-induced degranulation (β-hexosaminidase release); type: cell-based; settings: RBL-2H3 cells, anti-DNP-IgE / DNP-BSA, read-out: inhibitory activity against IgE-induced degranulation
Method: An inhibitory action against SYK was evaluated by an inhibitory action against degranulation of basophils induced by IgE. Rat basophilic cells RBL-2H3 were incubated with an anti-DNP-IgE antibody (1 μg/mL, Zymed) overnight. After washing cells twice with HBSS, an antigen DNP-BSA (1 μg/mL, LSL) was added, followed by incubation for 30 minutes. The supernatant was taken and an activity of β-hexosaminidase in the solution isolated by degranulation was measured using p-nitrophenyl-N-β-D-glucosaminide as a substrate. Using an absorbance meter (Spectra MAX Pro, Molecular Devices), each absorbance at 405 nm and 570 nm of the solution was measured and an increase in the amount was taken as an enzyme activity. 10 minutes before the addition of an antigen, a test material and a solvent (0.1% DMSO) were added to cells. Inhibition rate (%) against degranulation was calculated by the following equation.
Inhibition rate (%)=(1−(A−C)/(B−C))×100
where A denotes an increase in absorbance of a test material group, B denotes an increase in absorbance of a solvent group, and C denotes an increase in absorbance of a solvent group which is not stimulated by an antigen.

Syk kinase = molecular target: T3, Syk kinase (Homo sapiens, UniProt P43405); assay: Kinase activity, mobility shift assay (MSA), Syk; type: biochemical; settings: read-out: inhibitory activity against Syk kinase
T3 construct: purchased Carna Biosciences Inc. (Kobe) 08-176
Method: as §1
Products manufactured by Carna Biosciences Inc. (Kobe) used as protein kinases (recombinant human kinases) in the test are as follows:
SYK (product number: 08-176), JAK3 (product number: 08-046), FLT3 (product number: 08-154), PDGFRα (PDGFRA) (product number: 08-157), TRKA (NTRK1) (product number: 08-186), KDR (product number: 08-191), CDK2/cycA (product number: 04-103), and AurA (AURKA) (product number: 05-101).
as §3
5 μl of a test compound solution (the concentration is 4 times of the final concentration) dissolved or suspended in an assay buffer [20 mM HEPES, 0.01% Triton™ X-100, 1 mM dithiothreitol, pH 7.5] or 5 μl of a solvent (4% DMSO-assay buffer) was charged in a 384 well plate made of polypropylene (product number 781280, manufactured by Greiner Bio-One Co., Ltd.). Then, 5 μl of ATP/substrate/metal solution of QuickScout Screening Assist MSA was added. Furthermore, 10 μl of a kinase solution diluted with assay buffer was added and the reaction was initiated. However, only assay buffer (10 μl) was added to blank. The concentration of kinase and reaction conditions were controlled in accordance with the protocol of QuickScout Screening Assist MSA. Then, the reaction was terminated by adding 60 μl of termination buffer of QuickScout Screening Assist MSA and the amount of a substrate (S) and a phosphorylated substrate (P) in the reaction solution were determined in accordance with the protocol of QuickScout Screening Assist MSA using LabChip3000 (manufactured by Caliper Life Sciences Co., MA, USA), and also inhibition of the test compound at a concentration of 0.01, 0.1 and 1 μM was measured, respectively. The amounts of S and P were expressed by the height of each separated peak. Inhibition (%) of the test compound was calculated in accordance with the following equation:
Inhibition (%)=(1−(C−A)/(B−A))×100
where A denotes blank, B denotes a solvent and C denotes P/(P+S) of a well of the compound.

| inhibition at 0.1 µM (AurA kinase) [%] | inhibition at 0.1 µM (JAK3) [%] | inhibition at 0.1 µM (JAK2) [%] | inhibition at 0.1 µM (Syk kinase) [%] | SMILES | inhibition at 0.05 µM [1] [%] |
| --- | --- | --- | --- | --- | --- |
| ≥ 50 |  |  |  | Cc1cccc2cnc(Nc3ccc4cc[nH]c4c3)nc12 [Example 5, N-(1H-indol-6-yl)-8-methylquinazoline-2-amine] |  |
|  | ≥ 50 | ≥ 50 |  | COc1ccc(Nc2ncc3cccc(C)c3n2)cc1OC [Example 30] |  |
|  |  |  | ≥ 50 | Cc1cccc2cnc(Nc3cc(O)c4cn[nH]c4c3)nc12 [Example 82, 8-methyl-N-(4-hydroxy-1H-indazol-6-yl)quinazoline-2-amine] | ≥ 50 |
|  |  |  | ≥ 50 | Cc1nc2c(N)cc(Nc3ncc4cccc(C)c4n3)cc2[nH]1 [Example 88, 8-methyl-N-(2-methyl-4-amino-1H-benzo[d]imidazol-6-yl)quinazoline-2-amine] | ≥ 50 |
